Measurements reported in PMC5358875 (Journal of the American Chemical Society, 2017).

Legend:
TNKS1 ARC2-3 = target: T1, TNKS1 ARC2-3 (Homo sapiens, UniProt O95271); assay: Isothermal titration calorimetry, TNKS1 ARC2-3; format: binding; details: unlabeled peptides and Axin proteins
T1 construct: His6 (cleaved yes); made in house; host or cells: E. coli C41(DE3)
T1 sequence (O95271 315-662): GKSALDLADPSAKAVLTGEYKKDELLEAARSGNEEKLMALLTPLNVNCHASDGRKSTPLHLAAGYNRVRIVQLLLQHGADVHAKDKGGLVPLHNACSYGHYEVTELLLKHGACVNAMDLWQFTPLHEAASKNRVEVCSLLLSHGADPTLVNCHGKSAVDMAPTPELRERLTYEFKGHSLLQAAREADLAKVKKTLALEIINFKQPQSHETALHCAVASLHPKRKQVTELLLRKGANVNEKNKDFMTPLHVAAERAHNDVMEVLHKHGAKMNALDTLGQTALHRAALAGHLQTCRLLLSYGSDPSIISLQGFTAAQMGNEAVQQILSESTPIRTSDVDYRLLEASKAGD
Experimental: (§1) All ITC experiments were performed on a MicroCal iTC200 (GE Healthcare) at 25 °C. TNKS2 ARC4 (488–649), TNKS1 ARC2–3 (315–662), and Axin1 fragments were dialyzed overnight in PBS and 0.5 mM TCEP. Unlabeled peptides were used in the experiments. The peptide was diluted from the stock solution using the same dialysis buffer, and the effect of buffer dilution was accounted for when preparing TNKS samples. TNKS2 ARC4 (160–280 μM) or TNKS1 ARC2–3 (60–150 μM) was titrated into the sample cell containing the peptide (5–15 μM) or Axin1 fragments (8–12 μM) with an initial injection of 0.2 μL over 0.4 s followed by 19 injections of 2 μL over 4 s with a spacing of 60 s, except for TNKS2 ARC4 and Axin1 fragments for which the spacing was 70 s. Control experiments were performed using the same settings as above except that the cell was filled with dialysis buffer. Data were fitted with nonlinear regression using a one-site binding model from Origin 7.0 (MicroCal, Inc.).[90]

[1] = tested on: Wnt-activated HEK 293T cells; assay: TOPFLASH dual-luciferase reporter assay; format: cell-based; details: unlabeled peptides
Experimental: A dual-luciferase reporter (DLR) assay in Wnt-activated HEK 293T cells was used to determine the ability of the peptides to modulate β-catenin levels and suppress Wnt transcription. […] Treatment of HEK 293T cells with an increasing concentration of unlabeled peptide cp4n2m3c-Antp (containing the penetratin sequence on the linker) led to a dose-dependent decrease in Wnt pathway reporter activity with an IC50 around 50 μM (Figure 8). […] Moreover, treatment with non-cell-penetrating peptides pep1 or cp4n2m3c had no effect on Wnt reporter activity, nor did treatment with cp4n1m3c-Antp (a cell-penetrating version of the non-binding peptide cp4n1m3c) (Table S2), thereby satisfying these specificity controls.
HEK 293T were grown in Dulbecco’s Modified Eagles Medium (DMEM) supplemented with 10% fetal calf serum. Wnt pathway activity was induced by treating cells with 20 mM LiCl (or KCl as control) or conditioned media obtained from L-cells expressing Wnt3A for 6 h. […]
For TOPFLASH reporter assays, 100 ng of TOPFLASH plasmid and 10 ng of CMV-Renilla plasmid (as internal control) were used to transfect cells in 24-well plates. […] Relative luciferase values were obtained from triplicate samples (from two independent experiments) by dividing the firefly luciferase values (from TOPFLASH) by the Renilla luciferase values (from CMV-renilla), and standard deviations were calculated.

TNKS2 ARC4 [2] = target: T2, TNKS2 ARC4 (Homo sapiens, UniProt Q9H2K2); assay: Isothermal titration calorimetry, TNKS2 ARC4; format: binding; details: unlabeled peptides and Axin proteins
T2 construct: GST (cleaved yes); made in house; host or cells: E. coli C41(DE3)
T2 sequence (Q9H2K2 488-649): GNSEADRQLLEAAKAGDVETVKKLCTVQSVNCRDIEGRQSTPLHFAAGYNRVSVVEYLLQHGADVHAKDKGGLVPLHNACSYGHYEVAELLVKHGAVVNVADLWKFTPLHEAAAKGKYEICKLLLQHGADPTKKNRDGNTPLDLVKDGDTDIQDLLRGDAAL
Experimental: as §1

TNKS2 ARC4 [3] = target: T2, TNKS2 ARC4; assay: Direct fluorescence polarization, TNKS2 ARC4; format: binding; details: TAMRA-labeled peptides; n.d. = not detectable; read-out: Kd TNKS2 ARC4 (Direct FP)
Experimental: Fluorescence polarization (FP) assays were performed in 96-well half area black microplates (Corning) on a CLARIOstar microplate reader (BMG labtech) using excitation filter 540–20 nm, dichroic mirror LP 566 nm, and emission filter 590–20 nm. All peptides were dissolved in water as stock solutions. For direct FP assays, the stock concentrations of the TAMRA-labeled peptides were determined based on the 5-TAMRA absorbance at 556 nm (extinction coefficient ε = 89,000 M^–1 cm^–1) measured on a NanoDrop 2000 (Thermo Scientific) and verified by amino acid analysis (Department of Biochemistry, University of Cambridge). TNKS2 ARC4 (488–649) or TNKS1 ARC2–3 (315–662) was diluted 2-fold serially in the assay buffer (50 mM HEPES pH 7.5, 300 mM NaCl, 2 mM DTT, 0.05% (v/v) Tween 20) for a 12-point titration curve in triplicate. The diluted TAMRA-labeled peptide (20 nM, 50 μL) was mixed with the serially diluted TNKS2 ARC4 or TNKS1 ARC2–3 (40–0 μM, 50 μL) in each well and incubated for 30 min at 25 °C before the measurement. Data were analyzed on GraphPad Prism 5.0, and the dissociation constant, Kd, was determined using the following equation assuming the ratio between the concentration of the bound and that of the total TAMRA-labeled peptide is proportional to the fluorescence polarization [drawing 1] where FP is the fluorescence polarization, B is the minimum FP, T is the maximum FP, L0 is the total concentration of TAMRA-labeled peptide, P0 is the total concentration of protein, and Kd is the dissociation constant.

AspN protease = target: T3, AspN protease (Elizabethkingia meningoseptica, UniProt Q47899); assay: in vitro; details: isolated enzyme
T3 sequence (Q47899 92-443): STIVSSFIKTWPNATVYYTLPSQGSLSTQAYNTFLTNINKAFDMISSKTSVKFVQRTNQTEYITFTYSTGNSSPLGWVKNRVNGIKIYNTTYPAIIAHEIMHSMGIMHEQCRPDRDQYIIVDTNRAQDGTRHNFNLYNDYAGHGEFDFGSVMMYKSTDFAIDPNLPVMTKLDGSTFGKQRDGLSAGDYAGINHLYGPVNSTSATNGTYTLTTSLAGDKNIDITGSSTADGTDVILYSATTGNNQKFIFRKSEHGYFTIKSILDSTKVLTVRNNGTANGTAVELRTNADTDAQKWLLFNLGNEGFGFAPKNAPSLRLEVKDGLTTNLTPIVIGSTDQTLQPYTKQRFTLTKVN

Ac-REAGDGEE-NH2 [pep1]
Stoichiometry (ITC), TNKS1 ARC2-3 (TNKS1 ARC2-3): 0.9 ± 0.01
Kd (TNKS1 ARC2-3; 25 °C, read-out: Kd (nM) to TNKS1 ARC2-3 (ITC)): 290 ± 30 nM
effect on Wnt reporter activity [1]: no effect
Stoichiometry (ITC), TNKS2 ARC4 (TNKS2 ARC4 [2]): 1.0 ± 0.004

CN(C)c1ccc2c(c1)Oc1cc(N(C)C)ccc1C21OC(=O)c2cc(C(=O)NCCCCCC(=O)N[C@@H](CCCNC(=N)N)C(=O)N[C@@H](CCC(=O)O)C(=O)N[C@H]3CCn4cc(nn4)CCCc4cn(nn4)CC[C@@H](C(=O)N[C@@H](CCC(=O)O)C(N)=O)NC(=O)CNC(=O)[C@H](CC(=O)O)NC(=O)CNC3=O)ccc21 [T-cp4n2m3]
Kd (TNKS2 ARC4 [3]): 600 ± 10 nM
remaining at 4.5 h, 400 μM (AspN protease): ~100%
